The values that follow come from BindingDB's records for doi:10.1021/cb400468c (Massachusetts Institute of Technology, 2013).

Test [1] addresses T1, Gag-Pol polyprotein [484-582,I494L,I497V,V499I,D514N,E519D,R541K,D544E,Q553K,N572D,L573M] (Human immunodeficiency virus, UniProt Q9QBY3, D514N/D544E/E519D/I494L/I497V/L573M/N572D/Q553K/R541K/V499I).
T1 construct: 484-582
The experiment in a line: Inhibition Assay. Here is the method:
(§1) HIV protease inhibitor activities were determined by fluorescence resonance energy transfer (FRET) method. Protease substrate, Arg-Glu-(EDANS)-Ser-Gln-Asn-Tyr-Pro-Ile-Val-Gln-Lys(DABCYL)-Arg, was labeled with the energy transfer donor (EDANS) and acceptor (DABCYL) dyes at its two ends to perform FRET. Fluorescence measurements were carried out on an EnVision plate reader (PerkinElmer).

In test [2] the target is T2, Gag-Pol polyprotein [484-582,I494L,I497V,V499I,E519D,I534V,R541K,D544E,Q553K,A555V,L573M] (Human immunodeficiency virus, UniProt Q9QBY3, A555V/D544E/E519D/I494L/I497V/I534V/L573M/Q553K/R541K/V499I).
T2 construct: 484-582
The experiment in a line: Inhibition Assay. Here is the method: as §1

Test [3] concerns the target T3, Gag-Pol polyprotein [484-582,I497V,V499I,E519D,G532V,I538V,R541K,D544E,Q553K,V566A,L573M] (Human immunodeficiency virus, UniProt Q9QBY3, D544E/E519D/G532V/I497V/I538V/L573M/Q553K/R541K/V499I/V566A).
T3 construct: 484-582
The experiment in a line: Inhibition Assay. Here is the method: as §1

The target in test [4] is T4, Gag-Pol polyprotein [484-582,I497V,V499I,E519D,R541K,D544E,Q553K,A555V,G557S,I568V,L574M,L573M] (Human immunodeficiency virus, UniProt Q9QBY3, A555V/D544E/E519D/G557S/I497V/I568V/L573M/L574M/Q553K/R541K/V499I).
T4 construct: 484-582
The test can be described thus: Inhibition Assay. The method, then: as §1

Another test addresses HIV-1 protease (Human immunodeficiency virus, UniProt O90785). The test can be described thus: Inhibition Assay. The method, then: as §1
Test [5] deals with T5, Gag-Pol polyprotein [489-892,N526H,R530K,V566I,I582L,V648I,Q690K,I723V,C750S,T788A,Q795E,T874A,V881I,P882Q] (Human immunodeficiency virus, UniProt P12497, C750S/I582L/I723V/N526H/P882Q/Q690K/Q795E/R530K/T788A/T874A/V566I/V648I/V881I).
T5 construct: 489-892
The test can be described thus: Drug Susceptibility Assay. The method, then: (§2) Drug susceptibility assays were carried out by Monogram Bioscience against wild-type HIV-1 control and patient-derived strains of wild-type HIV-1 from clades A, B, and C, and two multi-drug-resistant HIV-1 variants.

Test [6] deals with T6, Gag-Pol polyprotein [489-892] (Human immunodeficiency virus, UniProt P12497).
T6 construct: 489-892
The test can be described thus: Drug Susceptibility Assay. The method, then: as §2

The target of test [7] is HIV WT-A pol protein (wild-type clade A) (Human immunodeficiency virus 1, UniProt P12497). The experiment in a line: Drug Susceptibility Assay. The method, then: as §2
For test [8], the target named is HIV WT-C pol protein (wild-type clade C) (Human immunodeficiency virus, UniProt P12497). The test can be described thus: Drug Susceptibility Assay. The method, then:
as §2

For another test, the target named is MDR1 (Human immunodeficiency virus, UniProt P12497). The experiment in a line: Drug Susceptibility Assay. Here is the method: as §2
A further test has as its target MDRC4 (Human immunodeficiency virus, UniProt P12497). The experiment in a line: Drug Susceptibility Assay. Here is the method: as §2

The term Ki denotes the equilibrium dissociation constant of an inhibitor or competing ligand from its target. High values mean weaker binding, low ones tighter binding. Regarding `COc1ccc(S(=O)(=O)N(CCCc2ccccc2)C[C@@H](O)[C@H](Cc2ccccc2)NC(=O)c2cccc(O)c2)cc1` [3-Hydroxy-N-[(1S,2R)-2-hydroxy-3-[[(4-methoxyphenyl)sulfonyl](3-phenylpropyl)amino]-1-(phenylmethyl)propyl]-benzamide (AF-78)], the Ki in test [1] was 2.54 nM; in test [2] it was 5.89 nM; in test [3], 42.9 nM; in test [4] it was 23.8 nM; at HIV-1 protease it was 0.437 nM.
Regarding `CC[C@H](C)CN(C[C@@H](O)[C@H](Cc1ccccc1)NC(=O)c1cccc(O)c1)S(=O)(=O)c1ccc(-c2ccno2)s1` [3-Hydroxy-N-[(1S,2R)-2-hydroxy-3-[[[5-(5-isoxazolyl)-2-thienyl]sulfonyl][(2S)-2-methylbutyl]amino]-1-(phenylmethyl)propyl]-benzamide (AF-71)], the Ki in test [1] was 2.95 nM; in test [2], 30 nM; in test [3] it was 18.2 nM; in test [4], 44.8 nM; on HIV-1 protease, 3.33 nM.
The EC50 is the concentration needed to bring the measured effect to its halfway point. Consider `CC[C@H](C)[C@H](NC(C)=O)C(=O)N[C@@H](Cc1ccccc1)[C@H](O)CN(CC(C)C)S(=O)(=O)c1ccc(OC)cc1` [(2S,3S)-2-(Acetylamino)-N-[(1S,2R)-2-hydroxy-3-[[(4-methoxyphenyl)sulfonyl](2-methylpropyl)amino]-1-(phenylmethyl)propyl]-3-methyl-pentanamide (AF-68)], for which the Ki in test [1] is 0.049 nM; in test [2], 0.144 nM; in [3], 0.819 nM; in test [4] it was 1.03 nM; on HIV-1 protease, 0.146 nM. The EC50 in [5] amounted to 1.6 nM; in [6] it was 3.5 nM; in test [7], 2.4 nM; in test [8], 3 nM; on MDR1, 15.1 nM; on MDRC4, 15.4 nM.
`CC[C@H](C)CN(C[C@@H](O)[C@H](Cc1ccccc1)NC(=O)C(NC(C)=O)[C@@H](C)CC)S(=O)(=O)c1ccc2ncsc2c1` (stereo partly drawn) [(2S,3S)-2-(Acetylamino)-N-[(1S,2R)-3-[(6-benzothiazolylsulfonyl)[(2S)-2-methylbutyl]amino]-2-hydroxy-1-(phenylmethyl)propyl]-3-methyl-pentanamide (AG-23)]: the Ki in [1] is 0.028 nM; in test [2], 0.092 nM; in test [3], 0.376 nM; in test [4], 0.048 nM; at HIV-1 protease it was 0.021 nM. The EC50 in [5] was 1.9 nM; in test [6] it was 2.7 nM; in [7] it was 2.3 nM; in [8], 3.5 nM; at MDR1, 7.2 nM; at MDRC4, 8.7 nM.
Turning to `O=C(N[C@@H](Cc1ccccc1)[C@H](O)CN(CCCc1ccccc1)S(=O)(=O)c1ccc2ncsc2c1)c1cccc(O)c1` [N-[(1S,2R)-3-[(6-Benzothiazolylsulfonyl)(3-phenylpropyl)amino]-2-hydroxy-1-(phenylmethyl)propyl]-3-hydroxy-benzamide (AF-69)], the inhibition constant (Ki) in [1] worked out at 2 nM; in test [2] it was 2.27 nM; in [3], 19.2 nM; in test [4], 9.96 nM; at HIV-1 protease it was 0.07 nM.
Regarding `O=C(N[C@@H](Cc1ccccc1)[C@H](O)CN(CC1CCCCC1)S(=O)(=O)c1ccc2ncsc2c1)c1cccc(O)c1` [N-[(1S,2R)-3-[(6-Benzothiazolylsulfonyl)(cyclohexylmethyl)amino]-2-hydroxy-1-(phenylmethyl)propyl]-3-hydroxy-benzamide (AF-72)], the Ki in test [1] came to 0.383 nM; in test [2], 4.82 nM; in [3] it was 1.33 nM; in test [4], 2.75 nM; on HIV-1 protease it was 0.129 nM. For the same molecule, the EC50 was 37.9 nM in test [5]; 63.7 nM in [6]; 48.6 nM in test [7]; 94.6 nM in [8]; 99.1 nM at MDR1; 165 nM on MDRC4.
As for `COc1ccc(S(=O)(=O)N(CC2CCCCC2)C[C@@H](O)[C@H](Cc2ccccc2)NC(=O)c2cccc(O)c2)cc1` [N-[(1S,2R)-3-[(Cyclohexylmethyl)[(4-methoxyphenyl)sulfonyl]amino]-2-hydroxy-1-(phenylmethyl)propyl]-3-hydroxy-benzamide (AF-77)], the Ki is 0.49 nM in [1]; 3.4 nM in test [2]; 2.04 nM in test [3]; 2.47 nM in test [4]; 0.546 nM at HIV-1 protease. Also, the EC50 turned out to be 22.4 nM in test [5]; 47.3 nM in test [6]; 38.4 nM in test [7]; 65.7 nM in [8]; 86.9 nM at MDR1; 105 nM on MDRC4.
Consider `CC(C)CN(C[C@@H](O)[C@H](Cc1ccccc1)NC(=O)O[C@H]1CCOC1)S(=O)(=O)c1ccc(N)cc1` [VX-478], for which the EC50 in test [5] was determined as 1.8 nM; in [6], 3 nM; in test [7], 2.6 nM; in test [8] it was 3.7 nM; at MDR1, 15.6 nM; at MDRC4 it was 17.5 nM.
